Reference: publication PMC9572397, “Garcinia cambogia Phenolics as Potent Anti-COVID-19 Agents: Phytochemical Profiling, Biological Activities, and Molecular Docking” (Plants, 2022)

Biological target: SARS-CoV-2 3CL Protease (Severe acute respiratory syndrome coronavirus 2, UniProt P0DTD1)
Assay: 3CL protease SARS-CoV-2 activity (M^Pro assay), fluorescence kit
Format: biochemical
Settings: for Kinetic Activity: positive control 120; for ∆RFU: ∆T 30, positive control 100

Row | Structure (SMILES) | IC50 [µM] | Kinetic Activity (Conc. 0.1) | ∆RFU (Conc. 0.1) | Kinetic Activity (Conc. 1) | ∆RFU (Conc. 1) | Kinetic Activity (Conc. 10) | ∆RFU (Conc. 10) | Kinetic Activity (Conc. 100) | ∆RFU (Conc. 100) | reduction of the protease activity (in words) (final concentration of 50 μM, compared to the plumbagin positive standard)
1 | O=c1cc(-c2ccc(O)c(-c3c(O)cc(O)c4c(=O)cc(-c5ccc(O)cc5)oc34)c2)oc2cc(O)cc(O)c12 [Compound 2, amentoflavone] | 136 | 117.505 | 97.92 | 112.981 | 94.15 | 94.7529 | 78.96 | 44.4244 | 37.02 | –
2 | O=c1cc(-c2ccc(O)cc2)oc2c([C@@H]3O[C@H](CO)[C@@H](O)[C@H](O)[C@H]3O)c(O)cc(O)c12 [Compound 3, vitexin] | 231 | 117.109 | 97.59 | 110.257 | 91.88 | 99.133 | 82.61 | 46.7405 | 38.95 | –
3 | C[C@@H]1O[C@@H](OC[C@H]2O[C@@H](Oc3c(-c4ccc(O)c(O)c4)oc4cc(O)cc(O)c4c3=O)[C@H](O)[C@@H](O)[C@@H]2O)[C@H](O)[C@H](O)[C@H]1O [Compound 4, rutin] | – | 116.077 | 96.73 | 110.065 | 91.72 | 92.9049 | 77.42 | 32.3043 | 26.92 | –
4 | C[C@@H]1O[C@@H](O[C@H]2[C@H](Oc3cc(O)c4c(c3)O[C@H](c3ccc(O)cc3)CC4=O)O[C@H](CO)[C@@H](O)[C@@H]2O)[C@H](O)[C@H](O)[C@H]1O [Compound 5, naringin] | 28.6 | 117.637 | 98.03 | 101.965 | 84.97 | 80.2328 | 66.86 | 25.8243 | 21.52 | significant reduction
5 | Oc1cc(O)c2c(c1)O[C@H](c1ccc(O)c(O)c1)[C@@H](O)C2 [Compound 6, catechin] | 90.3 | 113.953 | 94.96 | 107.173 | 89.31 | 83.2328 | 69.36 | 33.3003 | 27.75 | –
6 | O=C(O)/C=C/c1ccc(O)cc1 [Compound 7, p-coumaric acid] | 471 | 118.477 | 98.73 | 113.905 | 94.92 | 100.333 | 83.61 | 42.0724 | 35.06 | –
7 | O=C(O)c1cc(O)c(O)c(O)c1 [Compound 8, gallic acid] | 178 | 117.505 | 97.92 | 109.237 | 91.03 | 93.0969 | 77.58 | 29.8323 | 24.86 | –
8 | CC1=CC(=O)c2c(O)cccc2C1=O [Plumbagin, reference compound] | 87.6 | 115.069 | 95.89 | 102.853 | 85.71 | 77.9528 | 64.96 | 27.0243 | 22.52 | –
